This is an account of results in patent publication US10463664B2, “Inhibitors of HSV nucleotidyl transferases and uses therefor” (Saint Louis University, priority 2013, dated 2019).

Like-named read-outs stand apart in the source and are kept apart here.

The subject of data set [1] is Vero cells. The data set can be described thus: MTT mitochondrial toxicity assay in Vero cells. The following applies: 24 h; read-out: Vero cell toxicity MTT CC50. In kind it is cell-based.
Data set [2] concerns primary human foreskin fibroblasts. As to the kind of experiment: in vitro. Put shortly:
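Primary HFF, 1.0×10^4/well, exposed 24 h to 0.78–100 μM compound in 1% DMSO. Viability read by MTT (0.25 mg/mL, 60 min, 570 nm) and by protease-release lysis luminescence. CC50 by non-linear fit of percent viability.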

Data set [3] relates to HSV-1 TK-deficient mutant ΔTK (strain 17). As to the kind of experiment: Replication inhibition of thymidine kinase-deficient HSV-1 mutant in Vero cells. In kind it is cell-based, herpes simplex virus 1. The note with it: 50 μM, 24 h. On the procedure: Cells and Viruses. Vero cells were maintained in Dulbecco's modified Eagle's medium (DMEM) containing 3% newborn calf serum, 3% bovine growth serum, 2 mM L-glutamine and 100 IU/mL penicillin and 0.1 mg/mL streptomycin (P/S). Primary human foreskin fibroblasts (ATCC #CRL2429™) were cultured in DMEM containing 10% FBS, 2 mM L-glutamine plus P/S, and used at passage 3 to 12. HSV-1 #6 and HSV-2 #1 are de-identified clinical isolates from the Saint Louis University Hospital. Stocks were prepared after a single passage in cell culture and were titered by standard plaque assay (Knipe and Spang, 1982). Wild-type HSV-1 and HSV-2 used in FIG. 6 were laboratory strains 17 and 333, respectively. The HSV-1 TK-deficient mutant, ΔTK contains a 361-bp deletion between the BglII-SmaI restriction enzyme sites in the UL23 open reading frame of strain 17 (Korom, et al., 2013). The TK-deficient mutant of HSV-2 strain 333, ΔTK-, contains a 180-bp KpnI-KpnI deletion in the UL23 open reading frame that abrogates TK activity (McDermott, et al, 1984). ΔTK- was the generous gift of Jim Smiley. Virus stocks were grown and titered on Vero cells (Morrison and Knipe, 1996).
Inhibition of acyclovir-resistant HSV-1 and HSV-2 mutants. […] HSV TK-deficient mutants are therefore insensitive to ACV. […] Vero cells were infected with laboratory strains of HSV-1 or HSV-2 and engineered TK-deficient mutants of the same strains. […] Similar patterns were seen when the compounds were used at 5 μM (FIG. 8B), although inhibition by compound #30 at 5 μM was too low to definitively interpret.

In data set [4] the test system is Vero cells. As to the kind of experiment: CytoTox-Glo cellular lysis assay in Vero cells. In kind it is cell-based. The note with it: 24 h; read-out: Vero cell toxicity CTG CC50. The method, then: Quantitative toxicity measurements were conducted for all compounds that suppressed HSV replication by approximately 2 login or more at 5 μM plus a number of compounds with lesser inhibitory activity for comparison. Toxicity was assessed by measuring release of intracellular proteases into the culture medium due to cellular lysis. […] Consistent with the subjective assessments of toxicity, all compounds selected for quantitative toxicity assessment had CC50 values ≥50 μM by both the MTT and cellular lysis assays (Table 1).

Data set [5] has as its system HCMV strain AD169. The data set can be described thus: HCMV plaque reduction assay in HFFs. The note with it: 10 days, read-out: EC50 against HCMV, plaque reduction assay. In kind it is cell-based, human cytomegalovirus. On the procedure:
HCMV plaque reduction EC50 and toxicity assays. Low passage primary HFFs were infected with HCMV strain AD169 in the presence of serial dilutions of the compounds from 0.032 to 100 μM. Ten days later the monolayers were stained with 1% neutral red solution in PBS. After rinsing, plaques were counted using a stereomicroscope and the EC50 was interpolated from the data. Cytotoxicity was measured using a plate-based assay in which compounds were added to HFFs at 0.032 to 100 μM. At the end of the incubation period, plates were stained for 1 h with a neutral red solution in PBS. The stain was then removed, the plates rinsed in PBS and dried, and dye internalized by viable cells was determined at OD550. CC50 values were interpolated from the data.
Compounds #41, 46, 49, 55, 56, and 59 and the FDA-approved, anti-HCMV drug ganciclovir were subsequently evaluated with plaque reduction and toxicity assays in HFFs. HFFs were infected with HCMV in the presence of serial dilutions of the compounds. After 10 days the cultures were stained with neutral red and plaques were counted. Compound cytotoxicity for uninfected cells was determined in the same manner except that neutral red uptake by viable cells was measured by optical density. […] The TI values for the five NTS inhibitors of HCMV ranged from 5 for compound #46 to 17 for #55 and 59. Therefore, NTS inhibitors can suppress HCMV replication in addition to inhibiting the HSVs.
A general note: In a plaque reduction assay, fewer plaques than in the control indicate reduced infectivity or spread.

Data set [6] deals with HSV-1. The data set can be described thus: Topical treatment of mice infected with HSV-1 on the cornea. In kind it is in vivo. The note with it: for Body weight post-infection: 1 μg three times daily for 5 days. On the procedure:
Compounds were administered at 1 μg/eye in 10% DMSO. Two mice were treated with 10% DMSO as a negative control. The corneal surface was swabbed once per day on days 1, 2, 4 and 5 post-infection and titer of virus shed from the epithelium was determined by standard plaque assay. On the fifth day post-infection mice were euthanized and the trigeminal ganglia (TG) and brainstems were dissected. The tissues were disrupted and virus in them quantified by plaque assay. […] Weight of individual mice was recorded daily. […] Saline was a negative control. On the fifth day post-infection mice were euthanized and the trigeminal ganglia (TG) and brainstems were dissected. The tissues were disrupted and virus in them quantified by plaque assay.
Body weight was monitored daily post-infection as a sensitive indicator of overall health (FIG. 12).
Infected mice treated with saline served as a negative control.

Where [7] appears, read: 1 μg/eye once daily, compared with DMSO control.
The mark [8] stands for this setting: 7.5 μg/eye three times per day, BALB/c mice, versus saline control.

Turning to `CCOc1ccc(-c2c3cc(O)c(=O)cc-3oc3cc(O)c(O)cc23)cc1` [Compound 30], the CC50 in data set [1], in data set [2] and in data set [4] was above 100 µM throughout. The “Inhibition of TK-mutant HSV-1 (in words)” value in data set [3] is reported as “efficiently inhibited”.

In general, EC50 refers to the concentration giving half of the maximal effect. On to `C=C(C)C1CCc2c(c(C)cc(O)c(=O)c2O)C1` (stereo not shown) [Compound 56, Manicol], for which the CC50 in data set [1] is above 100 µM; in data set [2], above 100 µM; in data set [4] it was around 100 µM. Also, the EC50 in data set [5] was determined as 2.66 µM.

Regarding `Nc1nc2c(ncn2COCCO)c(=O)[nH]1` [ACV, Acyclovir, reference compound], the “Inhibition of TK-mutant HSV-1 (in words)” value in data set [3] is listed as “little effect”. Further, the Body weight post-infection result in data set [6] is listed as “maintained their weight through 8 days post-infection”. Further, in data set [6] (setting [7]), the “Virus in the TG at 5 days post-infection” value is given as “significantly reduced” and the “Virus shed in the tear film” value was “transiently reduced”. Besides, the “Titers of virus in the TG on day 5 post-infection” value in data set [6] (setting [8]) is on record as “reduced to a similar extent”.

For `CC(C)c1ccc(O)c(=O)c(O)c1` [Compound 46, Beta-thujaplicinol], the CC50 in data set [1], in data set [2] and in data set [4] was above 100 µM in each case. Further, in data set [3], the “Inhibition of TK-mutant HSV-1 (in words)” value is “efficiently inhibited”. In data set [5], the EC50 came to 1.3 µM. Further, the Body weight post-infection result in data set [6] is recorded as “maintained their weight through 8 days post-infection”. The “Virus in the TG at 5 days post-infection” value in data set [6] (setting [7]) is recorded as “significantly reduced”. In addition, the “Virus in the brainstem at 5 days post-infection” value in data set [6] (setting [7]) is given as “significantly reduced”. In addition, the “Virus shed in the tear film” value in data set [6] (setting [7]) is “transiently reduced”.

Consider `Cc1cc(C2CCCCC2)n(O)c(=O)c1` [Compound 41, Ciclopirox, reference compound], for which the “Inhibition of TK-mutant HSV-1 (in words)” value in data set [3] is recorded as “efficiently inhibited”. Besides, in data set [5] (Human betaherpesvirus 5, AD169, 240 h), the EC50 was 0.33 µM. Besides, in data set [6] (setting [8]), the “Titers of virus in the TG on day 5 post-infection” value is recorded as “lower” and the “Titers of virus in the brainstem on day 5 post-infection” value was “lower”.

Regarding `CC(C)=CCc1ccc(O)c(=O)cc1C(C)C` [Compound 49, Nootkatin], the CC50 in data set [1], in data set [2] and in data set [4] was above 100 µM each time. Also, the EC50 in data set [5] worked out at 0.45 µM.

As for `CC(=O)NC(CCc1ccc(Cl)c(Cl)c1)c1cccc(O)c(=O)c1` (stereo not shown) [Compound 55], the CC50 in data set [1], in data set [2] and in data set [4] was above 100 µM in each case. Further, the EC50 in data set [5] was determined as 0.47 µM.
